What follows are compounds tested against T1, mGlyT-1b (Mus musculus, UniProt P28571) (assay: Glycine Uptake Inhibition Assay (mGlyT-1b)). Details: [3H]-glycine uptake in Flp-in-CHO cells transfected with mGlyT-1b cDNA; read-out: IC50 (μM) at GlyT-1.
T1 construct: expressed in transfected cells; host or cells: Flp-in-CHO (Invitrogen Cat no R758-07), stably transfected
T1 sequence (P28571 1-651 isoform P28571-2): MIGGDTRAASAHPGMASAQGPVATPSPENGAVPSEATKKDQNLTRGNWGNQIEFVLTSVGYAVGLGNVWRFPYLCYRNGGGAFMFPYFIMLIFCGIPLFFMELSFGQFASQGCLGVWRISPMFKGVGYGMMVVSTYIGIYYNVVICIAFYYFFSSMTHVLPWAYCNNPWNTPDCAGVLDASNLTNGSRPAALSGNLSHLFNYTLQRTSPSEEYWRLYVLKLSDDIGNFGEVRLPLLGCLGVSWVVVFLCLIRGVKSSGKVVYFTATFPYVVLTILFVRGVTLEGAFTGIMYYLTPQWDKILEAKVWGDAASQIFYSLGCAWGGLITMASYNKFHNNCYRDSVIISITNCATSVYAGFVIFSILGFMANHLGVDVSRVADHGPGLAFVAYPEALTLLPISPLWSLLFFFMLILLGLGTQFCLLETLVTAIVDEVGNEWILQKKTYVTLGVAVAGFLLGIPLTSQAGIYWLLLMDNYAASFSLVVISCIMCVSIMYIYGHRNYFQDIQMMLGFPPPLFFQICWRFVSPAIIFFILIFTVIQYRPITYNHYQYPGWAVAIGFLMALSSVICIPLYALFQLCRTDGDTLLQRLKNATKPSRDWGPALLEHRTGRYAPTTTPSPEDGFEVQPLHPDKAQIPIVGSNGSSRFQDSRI
Format: cell-based
Protocol: DMEM complete medium: Nutrient mixture F-12 (Gibco Life-technologies), fetal bovine serum (FBS) 5%, (Gibco life technologies), Penicillin/Streptomycin 1% (Gibco life technologies), Hygromycin 0.6 mg/ml (Gibco life technologies), Glutamine 1 mM Gibco life technologies)
Uptake buffer (UB): 150 mM NaCl, 10 mM Hepes-Tris, pH 7.4, 1 mM CaCl2, 2.5 mM KCl, 2.5 mM MgSO4, 10 mM (+) D-glucose.
Flp-in™-CHO (Invitrogen Cat no R758-07) cells stably transfected with mGlyT1b cDNA.
Glycine Uptake Inhibition Assay (mGlyT-1b)
On day 1 mammalian cells, (Flp-in™-CHO), transfected with mGlyT-1b cDNA, were plated at the density of 40,000 cells/well in complete F-12 medium, without hygromycin in 96-well culture plates. On day 2, the medium was aspirated and the cells were washed twice with uptake buffer (UB). The cells were then incubated for 20 min at 22° C. with either (i) no potential competitor, (ii) 10 mM non-radioactive glycine, (iii) a concentration of a potential inhibitor. A range of concentrations of the potential inhibitor was used to generate data for calculating the concentration of inhibitor resulting in 50% of the effect (e.g. IC50, the concentration of the competitor inhibiting glycine uptake of 50%). A solution was then immediately added containing [^3H]-glycine 60 nM (11-16 Ci/mmol) and 25 μM non-radioactive glycine. The plates were incubated with gentle shaking and the reaction was stopped by aspiration of the mixture and washing (three times) with ice-cold UB. The cells were lysed with scintillation liquid, shaken 3 hours and the radioactivity in the cells was counted using a scintillation counter.

SMILES | IC50 [µM]
CS(=O)(=O)c1ccc(SCC(F)(F)F)c(C(=O)N2CCN(c3ncc(C(F)(F)F)cc3F)CC2)c1 [Example 11, [4-(3-Fluoro-5-trifluoromethyl-pyridin-2-yl)-piperazin-1-yl]-[5-methanesulfonyl-2-(2,2,2-trifluoro-ethylsulfanyl)-phenyl]-methanone] | 0.07
CC(C)CSc1ccc(S(C)(=O)=O)cc1C(=O)N1CCN(c2ccc(S(C)(=O)=O)cc2F)CC1 [Example 18, [4-(2-Fluoro-4-methanesulfonyl-phenyl)-piperazin-1-yl]-(2-isobutylsulfanyl-5-methanesulfonyl-phenyl)-methanone] | 0.1
CC(=O)c1ccc(N2CCN(C(=O)c3cc(S(C)(=O)=O)ccc3SC(C)C)CC2)c(F)c1 [Example 22, 1-{3-Fluoro-4-[4-(2-isopropylsulfanyl-5-methanesulfonyl-benzoyl)-piperazin-1-yl]-phenyl}-ethanone] | 0.015
CC(C)Sc1ccc(S(C)(=O)=O)cc1C(=O)N1CCN(c2ccc(S(C)(=O)=O)cc2F)CC1 [Example 6, [4-(2-Fluoro-4-methanesulfonyl-phenyl)-piperazin-1-yl]-(2-isopropylsulfanyl-5-methanesulfonyl-phenyl)-methanone] | 0.04
CS(=O)(=O)c1ccc(N2CCN(C(=O)c3cc(S(C)(=O)=O)ccc3SCC(F)(F)F)CC2)c(F)c1 [Example 14, [4-(2-Fluoro-4-methanesulfonyl-phenyl)-piperazin-1-yl]-[5-methanesulfonyl-2-(2,2,2-trifluoro-ethylsulfanyl)-phenyl]-methanone] | 0.1
CCSc1ccc(S(C)(=O)=O)cc1C(=O)N1CCN(c2ncc(C(F)(F)F)cc2F)CC1 [Example 7, (2-Ethylsulfanyl-5-methanesulfonyl-phenyl)-[4-(3-fluoro-5-trifluoromethyl-pyridin-2-yl)-piperazin-1-yl]-methanone] | 0.08
CNS(=O)(=O)c1ccc(SC(C)C)c(C(=O)N2CCN(c3ccc(C(F)(F)F)cc3)CC2)c1 [Example 25, 4-Isopropylsulfanyl-N-methyl-3-[4-(4-trifluoromethyl-phenyl)-piperazine-1-carbonyl]-benzenesulfonamide] | 0.006
CC(C)Sc1ccc([N+](=O)[O-])cc1C(=O)N1CCN(c2ccc(C(F)(F)F)cc2)CC1 [Example 27, (2-Isopropylsulfanyl-5-nitro-phenyl)-[4-(4-trifluoromethyl-phenyl)-piperazin-1-yl]-methanone] | 0.007
CC(C)Sc1ccc(S(C)(=O)=O)cc1C(=O)N1CCN(c2ncc(C(F)(F)F)cc2F)CC1 [Example 3, [4-(3-Fluoro-5-trifluoromethyl-pyridin-2-yl)-piperazin-1-yl]-(2-isopropylsulfanyl-5-methanesulfonyl-phenyl)-methanone] | 0.03
CC(C)Sc1ccc(S(C)(=O)=O)cc1C(=O)N1CCN(c2ccc([N+](=O)[O-])cc2Cl)CC1 [Example 23, [4-(2-Chloro-4-nitro-phenyl)-piperazin-1-yl]-(2-isopropylsulfanyl-5-methanesulfonyl-phenyl)-methanone] | 0.018
